Experimental data: publication PMC2935290 (Journal of immunology (Baltimore, Md. : 1950), 2010)
Numbering of substitutions follows the chain as printed.

Legend:
[1] = target: T1, HLA-DPB1*0201 (Homo sapiens, UniProt P04440+P20036, A65V/A84D/A85E/K98E); assay: biochemical; assay type: binding
T1 sequence (P04440 30-258 A65V/A84D/A85E/K98E): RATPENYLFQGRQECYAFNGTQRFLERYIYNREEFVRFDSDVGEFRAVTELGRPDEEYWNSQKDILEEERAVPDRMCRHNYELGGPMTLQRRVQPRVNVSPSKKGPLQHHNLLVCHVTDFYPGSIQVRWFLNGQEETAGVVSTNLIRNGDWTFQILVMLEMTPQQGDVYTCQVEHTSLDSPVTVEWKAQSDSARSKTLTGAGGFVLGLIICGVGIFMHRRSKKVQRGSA
T1 sequence (P20036 29-260): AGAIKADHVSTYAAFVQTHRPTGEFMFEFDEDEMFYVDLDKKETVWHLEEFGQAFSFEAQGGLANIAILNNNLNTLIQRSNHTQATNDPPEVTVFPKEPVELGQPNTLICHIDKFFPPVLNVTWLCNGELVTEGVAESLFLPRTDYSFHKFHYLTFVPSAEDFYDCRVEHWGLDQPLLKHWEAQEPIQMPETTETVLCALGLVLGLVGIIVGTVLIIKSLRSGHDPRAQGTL

[2] = target: T2, HLA-DPB1*0402 (Homo sapiens, UniProt P04440+P20036, A65V/A84D/A85E/L207M); assay: biochemical; assay type: binding
T2 sequence (P04440 30-258 A65V/A84D/A85E): T1 sequence (P04440 30-258 A65V/A84D/A85E/K98E) with E69K
T2 sequence (P20036 29-260): T1 sequence (P20036 29-260)

| SMILES | IC50 [1] [nM] | IC50 [2] [nM] |
| --- | --- | --- |
| CC(C)C[C@H](NC(=O)[C@@H](NC(=O)[C@H](Cc1c[nH]cn1)NC(=O)[C@H](CO)NC(=O)[C@H](Cc1ccccc1)NC(=O)[C@H](CO)NC(=O)CNC(=O)CNC(=O)[C@H](CC(C)C)NC(=O)[C@H](Cc1ccc(O)cc1)NC(=O)[C@H](CCCNC(=N)N)NC(=O)[C@H](Cc1ccc(O)cc1)NC(=O)[C@H](CC(C)C)NC(=O)[C@@H]1CCCN1)C(C)C)C(=O)O | 13 | 149 |
| CSCC[C@H](NC(=O)[C@H](CCSC)NC(=O)[C@@H](N)CCCNC(=N)N)C(=O)N[C@@H](CCC(=O)O)C(=O)N[C@@H](Cc1ccc(O)cc1)C(=O)NCC(=O)N[C@H](C(=O)N[C@H](C(=O)N[C@@H](CCSC)C(=O)N[C@H](C(=O)N[C@@H](CO)C(=O)N[C@@H](Cc1ccc(O)cc1)C(=O)N[C@@H](CCC(N)=O)C(=O)N1CCC[C@H]1C(=O)N[C@@H](CC(C)C)C(=O)O)C(C)C)[C@@H](C)O)[C@@H](C)O | 725 | 1310 |
